Consider two molecules from PMC8395040 (International Journal of Molecular Sciences, 2021).

The subject of one series is B16F10 cells. As to the kind of experiment: MTS viability assay, B16F10. In kind it is cell-based, murine. The settings on record: Mus musculus, B16-F10, 24 h. How it is done: In the case of experiments using nanoemulsions, cell proliferation was evaluated after treatments. To do this the complete medium containing treatments was removed and replaced with fresh culture medium supplemented with 10% tetrazolium compound of the MTS® assay (CellTiter 96® Aqueous Non-Radioactive Cell Proliferation Assay), according to the manufacturer’s instructions (Promega, Madison, WI, USA). The soluble formazan produced by live cells was detected as absorbance at 490 nm on a Multiscan Reader (Synergy-H4, Biotek). Background values contributed by excess of cell debris and bubbles were measured at 650 nm and were subtracted.
Figure 7 Effect of 4s-NEM on the viability of cancer (B16F10) and non-cancer (HEK293) cells in vitro. Cells were treated with 4s-NEM at different concentrations for 24 h and their viability was evaluated using the MTS assay; SDS, the vehicle for NEM, and 4s free in the culture medium were used as controls. The IC50 was determined in each case. (A) Effect of 4s-NEM on B16F10 cells. Six independent experiments were performed in triplicate. Results are shown as the mean ± SEM. (B) Effect of 4s-NEM on HEK293 cells. Results are shown as the mean ± SEM of three separate experiments. (***) p < 0.001, (*) p < 0.05 vs. control, ns = non-significant. Data analysis was performed via a 2-way ANOVA Tukey’s multiple comparisons test.

Series [1] deals with cancer cell lines (HH-dependent and HH-independent). As to the kind of experiment: Annexin V-FITC/PI dose-response, cancer cell lines. In kind it is cell-based, human. The settings on record: 1.5–50 µM, 72 h. How it is done:
Apoptosis plays a major role in maintaining the homeostasis of cells. Cellular shrinkage and DNA fragmentation at the molecular level are characteristics acquired during apoptosis. Therefore, we performed flow cytometric analysis to determine if 4s could induce apoptosis in tumour cell lines. To this end, 4s-treated cells were stained with Annexin V-FITC and/or PI and analysed by flow cytometry. Dose–response effects were assessed using 4s at concentrations under 50 µM (1.5, 3.0, 6.25, 19, 25 and 50 µM) for 72 h.
Supplemental Figure S1: 4s triggers apoptosis in various cancer cell lines. A)
Dose-response curves are shown for four neoplastic cancer cell lines and HEK293 cells as a control. Cells were treated with 4s […]
stained with annexin V-FITC and propidium iodide (PI) and analyzed by flow cytometry.
Results are presented as the mean ± SD of three independent experiments. (***) p <
0.0001 vs. control. Data were analyzed with a non-parametric t-test. B) Representative dot plot of HT29 cells untreated (control) or treated for 3 h with 4s (19 µM ). […]

The target in the next series is T1, human WT SMO (Homo sapiens, UniProt Q99835).
T1 construct: Myc-DDK; expressed in transfected cells; host or cells: HEK293T
As to the kind of experiment: BODIPY-cyclopamine displacement assay, WT SMO. The settings on record: HEK293T transfected with WT SMO, BC 5 nM; read-out: IC50 for binding to WT SMO (BC displacement). How it is done: HEK293T cells were transfected with genes encoding human WT SMO tagged with Myc-DDK or human SMO D473H mutant tagged with Myc. Cells were washed in PBS supplemented with 0.5% FBS, fixed in 4% paraformaldehyde in PBS for 10 min, and incubated for 6 h at 37 °C in the same medium supplemented with BODIPY-cyclopamine (5 nM), with and without 4s at different concentrations ([…]). The cells were permeabilised with 0.2% Triton X-100 (Sigma, St. Louis, MO, USA). Dako Fluorescent Mounting solution (Dako, Carpinteria, CA, USA) was used as mounting medium and the Hoechst reagent for staining of cell nuclei. BODIPY (green) and Hoechst (blue) signals were analysed in three representative fields per coverslip (×20 magnification). Data were expressed as the percentage of BC incorporation observed with BC alone.

For the next series, the system named is HT29. Description: Colony formation assay, HT29. In kind it is cell-based, human. The settings on record: 5 µM, 14 d. As for the experimental part:
HT29, HCT116, H1975 and HEK293 cells were seeded in a 6-well plate (1 × 10^4 cells per well) and incubated overnight in DMEM F12 supplemented with 10% FBS. […] After 72 h, the medium was replaced by fresh medium without stimuli, and cells were incubated for an additional 14 d to permit colony formation. The cells were fixed during 30 min with PFA 4% (v/v), washed and stained for 30 min at RT with a 5% solution of violet crystal for final colony counting. Three independent replicates were performed.

A further series concerns pancreatic cancer cells. The arrangement: method as in PMID 28490735. The settings on record: cited from earlier work.

What is called IC50 is the concentration at which inhibition is half-maximal. In general, melting point refers to the temperature of the solid-liquid transition.

T1 sequence (Q99835 28-787): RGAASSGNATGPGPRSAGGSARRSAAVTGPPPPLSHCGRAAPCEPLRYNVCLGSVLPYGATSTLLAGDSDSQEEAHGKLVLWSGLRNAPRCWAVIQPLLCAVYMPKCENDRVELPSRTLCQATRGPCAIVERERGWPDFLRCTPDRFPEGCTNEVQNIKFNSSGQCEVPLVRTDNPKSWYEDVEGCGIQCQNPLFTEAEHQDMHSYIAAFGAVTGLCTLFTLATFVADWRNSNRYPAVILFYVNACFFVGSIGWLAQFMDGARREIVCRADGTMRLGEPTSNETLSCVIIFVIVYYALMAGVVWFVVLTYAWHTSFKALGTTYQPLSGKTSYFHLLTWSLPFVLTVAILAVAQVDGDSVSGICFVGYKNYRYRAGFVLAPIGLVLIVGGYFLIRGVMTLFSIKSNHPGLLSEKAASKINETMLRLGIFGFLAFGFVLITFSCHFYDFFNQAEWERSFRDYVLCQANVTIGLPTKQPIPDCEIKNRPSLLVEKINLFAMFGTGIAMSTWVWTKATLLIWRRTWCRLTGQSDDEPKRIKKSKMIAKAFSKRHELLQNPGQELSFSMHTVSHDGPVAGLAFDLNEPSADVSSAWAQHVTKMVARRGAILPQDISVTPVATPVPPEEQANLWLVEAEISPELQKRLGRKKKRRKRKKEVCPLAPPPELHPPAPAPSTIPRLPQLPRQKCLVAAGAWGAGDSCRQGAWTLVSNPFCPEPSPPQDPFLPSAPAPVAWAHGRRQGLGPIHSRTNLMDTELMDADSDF

Take `CCCCCCn1cnc2c(-c3ccc(OC(F)(F)F)cc3)nc(N3CCN(c4ccncc4)CC3)nc21` [Compound 4s, 9-Hexyl-2-(4-(pyridin-4-yl)piperazin-1-yl)-6-(4-(trifluoromethoxy)phenyl)-9H-purine]: the melting point fell in the range of 153 to 155 °C. Besides, in the series on B16F10 cells, the IC50 turned out to be 27.5 µM. For the same molecule, in series [1], the induction of apoptosis entry was “induced apoptosis in a dose-dependent manner”. Moreover, the half-maximal inhibitory concentration (IC50) on human WT SMO was found to be 950 nM.
Take `CS(=O)(=O)c1ccc(C(=O)Nc2ccc(Cl)c(-c3ccccn3)c2)c(Cl)c1` [Vismodegib, reference compound]: the “colony formation HT-29” value in the series on HT29 is reported as “less effective than 4s”. The “concentration inducing apoptosis in pancreatic cancer cells” value with pancreatic cancer cells is “greater than 100 µM”.
